Data: publication PMC9609824 (Molecules, 2022)
Where two headings read alike, the source gives them in different places.

Experiments:
[1] = tested on: CYP2C9 and CYP2C19; conditions: metabolized by CYP2C9 and CYP2C19; cited from earlier work
[2] = freeze–thaw stability (−80 °C, thawed at room temperature three times), High QC 1250
[3] = freeze–thaw stability (−80 °C, thawed at room temperature three times), Low QC 75
[4] = short-term stability T0 (room temperature, immediately after preparation), High QC 1250
[5] = short-term stability T0 (room temperature, immediately after preparation), Low QC 75
[6] = short-term stability T4 (freezer −80 °C, 4 h), High QC 1250
[7] = short-term stability T4 (freezer −80 °C, 4 h), Low QC 75
[8] = short-term stability T24 (freezer −80 °C, 24 h), High QC 1250
[9] = short-term stability T24 (freezer −80 °C, 24 h), Low QC 75

Question: For `Cc1cnc(C(=O)NCCc2ccc(S(=O)(=O)NC(=O)N[C@H]3CC[C@H](O)CC3)cc2)cn1` [4-trans-hydroxyglipizide], which “Share of glipizide metabolized to the inactive metabolite” value [1] is on record?
Answer: 71%

Question: Which “Share of glipizide metabolized to the inactive metabolite” value [1] does the source give for `Cc1cnc(C(=O)NCCc2ccc(S(=O)(=O)NC(=O)N[C@H]3CCC[C@@H](O)C3)cc2)cn1` (relative stereo) [3-cis-hydroxyglipizide] here?
Answer: 15%

Question: Which “Accuracy (% Error)” value (autosampler 24 h, High QC 1250) does the source give for `Cc1cnc(C(=O)NCCc2ccc(S(=O)(=O)NC(=O)NC3CCCCC3)cc2)cn1` [GLZ, glipizide] here?
Answer: −1.32%

Question: And the “Mean ± SD Measurable Conc.” value (autosampler 24 h, High QC 1250)?
Answer: 1233.47 ± 71.06 ng/mL

Question: What about the “Accuracy (% Error)” value (autosampler 24 h, Low QC 75) of the same compound?
Answer: 1.83%

Question: What about the “Mean ± SD Measurable Conc.” value (autosampler 24 h, Low QC 75) of the same compound?
Answer: 76.37 ± 2.27 ng/mL

Question: What about the “Accuracy (% Error)” value [2] of the same compound?
Answer: −1.59%

Question: What about the “Mean ± SD Measurable Conc.” value [2] of the same compound?
Answer: 1230.17 ± 112.55 ng/mL

Question: What about the “Accuracy (% Error)” value [3] of the same compound?
Answer: 4.86%

Question: What about the “Mean ± SD Measurable Conc.” value [3] of the same compound?
Answer: 78.65 ± 4.84 ng/mL

Question: What about the “Accuracy (% Error)” value [4] of the same compound?
Answer: −0.82%

Question: And the “Mean ± SD Measurable Conc.” value [4]?
Answer: 1239.79 ± 68.22 ng/mL

Question: And the “Accuracy (% Error)” value [5]?
Answer: 8.13%

Question: And the “Mean ± SD Measurable Conc.” value [5]?
Answer: 81.10 ± 2.06 ng/mL

Question: And the “Accuracy (% Error)” value [6]?
Answer: 2.82%

Question: What about the “Mean ± SD Measurable Conc.” value [6] of the same compound?
Answer: 1285.25 ± 10.84 ng/mL

Question: And the “Accuracy (% Error)” value [7]?
Answer: −6.68%

Question: And the “Mean ± SD Measurable Conc.” value [7]?
Answer: 69.99 ± 1.61 ng/mL

Question: And the “Accuracy (% Error)” value [8]?
Answer: 4.93%

Question: And the “Mean ± SD Measurable Conc.” value [8]?
Answer: 1311.63 ± 30.52 ng/mL

Question: What about the “Accuracy (% Error)” value [9] of the same compound?
Answer: −6.27%

Question: And the “Mean ± SD Measurable Conc.” value [9]?
Answer: 70.30 ± 2.90 ng/mL
